The source of these data is US20180228811A1, “GDNF INDUCTION FOR THE TREATMENT OF RETINAL DISORDERS” (THE SCHEPENS EYE RESEARCH INSTITUTE, INC., priority 2014, published 2018).

The test system of this assay is GDNF. The assay is described as follows: GDNF induction by Compound I aqueous solution in wild-type mice. As to conditions: 3 hours; for GDNF mRNA induction compared to vehicle-treated control: wild type mice; for GDNF protein upregulation compared to untreated control: wildtype mice, vehicle 1.5 fold. The class given is in vivo, mouse. On the procedure:
All animal procedures were performed under general (intraperitoneal ketamine/xylazine) and topical (proparacaine drops) anesthesia. Tropicamide was applied for pupil dilation. After injection, the eye was treated with antibiotic ointment (Bacitracin-Neomycin-Polymyxin). The same procedures were applied to control eyes.
To study GDNF induction by Compound I aqueous solution, 1 ul of 10 uM (n=5) or 100 uM (n=5) water-based Compound I or 1 ul of Vehicle (n=5) was administered intravitreally using beveled glass needle, connected to a Hamilton syringe through polyethylene tubing. During the injection, corneal paracenthesis was performed to reduce intraocular pressure. Compound I was injected into 4-week old wildtype (C57/Bl6, Jackson labs) and rhodopsin knockout (Humphries et al., Nat. Genet. 15, 216-219 (1997)).
Three hours after the injection animals were euthanized using CO2, then the death was confirmed by cervical dislocation. The treated and untreated eyes were enucleated and placed in 250 ul of chilled RNAlater buffer (Qiagen) and stored at 4° C. Later, eyes were excised and total neural retina with retinal pigment epithelium were collected into 400 ul of Lysis buffer (Qiagen RNeasy kit) with 5 mM beta-mercaptoethanol. Total RNA was isolated using RNeasy kit (Qiagen) and eluted with 100 ul of Ultrapure water (Life technologies). All flow through from RNA isolation (˜2.4 ml) was collected and mixed with 10 ml of ice-cold (−20° C.) acetone for protein precipitation. The protein was precipitated at −20° C. for 30 minutes, then pelleted at 3500 rpm for 20 min. Pellets were washed once with 100% ethanol, then reconstituted with 300 ul of RIPA buffer with 0.2 mM 4-benzenesulfonyl fluoride hydrochloride (Tocris). mRNA and protein expression were assessed by qPCR and Western Blot and normalized to GAPDH and βActin. The statistical analysis was performed using a T-test (p<0.05) with Bonferroni post-hoc test.

Turning to `COc1cc2c(cc1S(=O)(=O)c1ccc(OCc3ccc(Cl)cc3)cc1)CCN(C)CC2` [Compound I, 7-[4-(4-chloro-benzyloxy)-benzenesulfonyl]-8-methoxy-3-methyl-2,3,4,5-tetrahydro-1H-3-benzazepine], the “GDNF mRNA induction compared to vehicle-treated control” value reads like this: (1 ul of 10 uM solution intravitreally) 1.3 fold; (1 ul of 100 uM solution intravitreally) 1.9 fold. The “GDNF protein upregulation compared to untreated control” value is given as 2.3 fold (10 uM solution intravitreally) and 2.3 fold (100 uM solution intravitreally).
